Data taken from article PMC10146250, “Study on the liver Drug’s dominant metabolic enzymes for six effective components of the Huang qi Liuyi decoction” (Frontiers in Pharmacology, 2023).

Columns and labels:
CYP3A11 = assay: Mouse liver microsomal incubation with ketoconazole, specific inhibitor of CYP3A11; format: in vitro ADME; conditions: mouse liver microsomes 1 mg/mL, 60 min, 37°C, component 100 ng/mL, vs negative control without inhibitor
Protocol: (§1) All reactions were performed in triplicate.

[1] = design: method as in Wang et al., 2022c; conditions: oral administration of HQD, ref Wang et al., 2022c; cited from earlier work
[2] = Metabolic conversion in the liver microsomal incubation system without inhibitor; conditions: for Metabolic conversion rate under different reaction times: 0, 15, 30, 45, 60, 90 min at 37°C; for Metabolic conversion rate at different protein concentrations: liver microsomal protein 0, 0.25, 0.5, 0.75, 1, 2 mg/mL, 60 min
Protocol: Before the experiment, the mice were fasted for 12 h, and were euthanized after blood was taken from the eye sockets. The liver was quickly removed and perfused with pre-cooled saline through the hepatic portal vein until the liver was earthy yellow, washed three times with 1.15% KCl solution, wiped dry with filter paper, and then weighed. The liver was then cut up, homogenized with three times the volume of ethylene diamine tetraacetic acid (EDTA) in an ice bath, and centrifuged at 4°C for 10 min at 3,000 g. The supernatant was filtered, and the filtrate was centrifuged at 4°C for 20 min at 12,000 g. The supernatant was then centrifuged at 4°C for 45 min at 100,000 g, and the precipitate was resuspended in a resuspension solution (EDTA homogenate containing 20% glycerol). The protein concentration of the microsomes was determined using the BCA protein concentration determination kit, and the microsomes were aliquoted and pre-stored at −20°C for 60 min and transferred to −80°C for storage.
The total volume of the reaction was kept at 200 μL. The in vitro incubation system comprised of 50 μL liver microsomes (1 mg/mL), 50 μL specific inhibitor solution, 20 μL nicotinamide adenine dinucleotide phosphate (NADPH, 1 mmol/L), and 80 μL standard solution (100 ng/mL). The solution containing liver microsomes, specific inhibitors, and the standard solution was pre-incubated for 5 min at 37°C. NADPH, pre-incubated for 5 min at 37°C, was added to commence the reaction, and the solution was incubated for 60 min at 37°C on a thermostatic oscillator. At the end of the reaction, […] of ice-cold methanol containing the IS (the final concentrations of digoxin and puerarin were 0.745 μg/mL and 1 μg/mL, respectively) was added to terminate the reaction. The samples were vortexed for 1 min and centrifuged for 10 min (15,000 r/min). The contents of six active components in the supernatant were determined by HPLC-MS-MS. All reactions were performed in triplicate.
The six-component mixed standard solutions were incubated with the liver microsomal sample of different protein concentrations (0, 0.25, 0.5, 0.75, 1, 2 mg/mL) for 60 min, each with six replicates. Subsequently, samples were prepared according to the methods described in Section 2.6. The residual contents of the six effective components in each group were determined by HPLC-MS/MS to calculate the metabolic conversion rate.
The mixed standard solution containing the six components was incubated with mouse liver microsomes at 37°C for different time (0, 15, 30, 45, 60, 90 min), each with six replicates. Subsequently, samples were prepared according to the methods described in Section 2.6. The residual contents of the six effective components in each group were determined by HPLC-MS/MS to calculate the metabolic conversion rate.
The standard solution of astragaloside IV, glycyrrhizic acid, calycosin-glucuronide, formononetin, calycosin-7-O-β-D-glucoside, and ononin was added to phosphate-buffered saline (PBS, pH 7.0) as desired for dilution to produce a series of mixed solutions (50, 100, 250, 500, 1,000 ng/mL). Each mixed solution sample was incubated with 1.0 mg/mL liver microsomes for 60 min. The residual contents of the six effective components were determined by HPLC-MS/MS to calculate the metabolic conversion rate.
Α-naphthoflavone, quinidine, clomethiazole, ticlopidine, ketoconazole, and fluconazole were selected as specific inhibitors of CYP1A2, CYP2D22, CYP2E1, CYP2C37, CYP3A11, and CYP2C11, respectively ([El-Sherbeni and El-Kadi, 2014]; [Xu et al., 2016]). Forty-eight mice were randomly divided into eight groups of six mice each. The eight groups comprised six different specific inhibitor groups, a negative control group and a control group. For different specific inhibitor groups, mouse liver microsomes were incubated with related CYP450 enzyme specific inhibitors and mixed standard solutions.

CYP2C37 = molecular target: T1, CYP2C37 (Mus musculus, UniProt P56654); assay: Mouse liver microsomal incubation with ticlopidine, specific inhibitor of CYP2C37; format: in vitro ADME; conditions: mouse liver microsomes 1 mg/mL, 60 min, 37°C, component 100 ng/mL, vs negative control without inhibitor
T1 construct: from tissue; host or cells: liver microsomes of control (db/m) mice
T1 sequence (P56654 21-490): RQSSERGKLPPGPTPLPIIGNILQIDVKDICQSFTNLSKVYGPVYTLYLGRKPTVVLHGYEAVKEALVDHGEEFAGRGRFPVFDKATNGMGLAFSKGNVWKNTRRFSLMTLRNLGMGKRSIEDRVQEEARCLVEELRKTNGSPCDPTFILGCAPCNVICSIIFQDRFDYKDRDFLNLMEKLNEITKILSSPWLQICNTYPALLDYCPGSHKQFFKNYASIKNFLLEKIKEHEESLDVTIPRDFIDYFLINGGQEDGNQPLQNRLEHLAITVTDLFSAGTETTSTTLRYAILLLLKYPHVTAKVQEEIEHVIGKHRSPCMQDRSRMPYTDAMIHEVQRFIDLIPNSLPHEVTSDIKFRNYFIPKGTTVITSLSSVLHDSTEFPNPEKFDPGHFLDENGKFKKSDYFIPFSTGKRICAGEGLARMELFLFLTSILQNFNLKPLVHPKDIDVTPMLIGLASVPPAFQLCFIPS
Protocol: as §1

CYP1A2 = molecular target: T2, CYP1A2 (Mus musculus, UniProt P00186); assay: Mouse liver microsomal incubation with α-naphthoflavone, specific inhibitor of CYP1A2; format: in vitro ADME; conditions: mouse liver microsomes 1 mg/mL, 60 min, 37°C, component 100 ng/mL, vs negative control without inhibitor
T2 construct: from tissue; host or cells: liver microsomes of control (db/m) mice
T2 sequence (P00186 1-513): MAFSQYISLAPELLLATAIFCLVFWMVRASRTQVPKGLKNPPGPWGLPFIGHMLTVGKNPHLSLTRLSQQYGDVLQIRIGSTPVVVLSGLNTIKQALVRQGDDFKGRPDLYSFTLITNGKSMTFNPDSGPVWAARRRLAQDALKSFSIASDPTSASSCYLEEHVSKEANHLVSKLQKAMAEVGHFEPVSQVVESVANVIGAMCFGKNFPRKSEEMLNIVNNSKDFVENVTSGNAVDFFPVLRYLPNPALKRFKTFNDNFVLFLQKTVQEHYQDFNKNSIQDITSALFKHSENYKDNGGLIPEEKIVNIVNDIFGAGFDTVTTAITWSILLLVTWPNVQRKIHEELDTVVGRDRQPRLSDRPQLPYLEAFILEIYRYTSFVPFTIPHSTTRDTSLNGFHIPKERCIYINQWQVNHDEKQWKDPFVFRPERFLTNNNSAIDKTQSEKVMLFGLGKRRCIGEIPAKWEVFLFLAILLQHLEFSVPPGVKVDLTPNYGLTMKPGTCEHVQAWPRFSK
Protocol: as §1

CYP2E1 = molecular target: T3, CYP2E1 (Mus musculus, UniProt Q05421); assay: Mouse liver microsomal incubation with clomethiazole, specific inhibitor of CYP2E1; format: in vitro ADME; conditions: mouse liver microsomes 1 mg/mL, 60 min, 37°C, component 100 ng/mL, vs negative control without inhibitor
T3 construct: from tissue; host or cells: liver microsomes of control (db/m) mice
Protocol: as §1

CYP2C11 = assay: Mouse liver microsomal incubation with fluconazole, specific inhibitor of CYP2C11; format: in vitro ADME; conditions: mouse liver microsomes 1 mg/mL, 60 min, 37°C, component 100 ng/mL, vs negative control without inhibitor
Protocol: as §1

liver CYP450 enzymes = assay: Mouse liver microsomal incubation with the panel of specific CYP enzyme inhibitors; format: in vitro ADME; conditions: mouse liver microsomes 1 mg/mL, 60 min, 37°C, component 100 ng/mL; inhibitors of CYP1A2, CYP2D22, CYP2E1, CYP2C37, CYP3A11, CYP2C11
Protocol: as §1

T3 sequence (Q05421 whole entry): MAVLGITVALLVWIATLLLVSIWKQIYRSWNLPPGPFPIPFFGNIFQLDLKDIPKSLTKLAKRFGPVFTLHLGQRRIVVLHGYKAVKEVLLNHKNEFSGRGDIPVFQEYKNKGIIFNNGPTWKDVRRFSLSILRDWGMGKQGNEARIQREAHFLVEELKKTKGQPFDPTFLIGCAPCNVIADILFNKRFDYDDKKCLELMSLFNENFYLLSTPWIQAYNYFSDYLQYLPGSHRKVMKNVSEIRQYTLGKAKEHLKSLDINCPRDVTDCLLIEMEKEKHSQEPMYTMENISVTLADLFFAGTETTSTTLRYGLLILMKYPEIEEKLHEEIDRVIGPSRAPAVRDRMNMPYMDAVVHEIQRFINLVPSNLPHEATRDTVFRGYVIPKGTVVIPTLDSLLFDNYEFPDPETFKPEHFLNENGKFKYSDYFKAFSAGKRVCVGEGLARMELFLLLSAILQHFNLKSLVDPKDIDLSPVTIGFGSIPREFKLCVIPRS

Structure (SMILES) | Effect of ketoconazole (CYP3A11 inhibitor) on metabolism of the component (residual content) (CYP3A11) | Absorption and elimination in mice with diabetic nephropathy [1] | Metabolic conversion rate under different reaction times [2] | Metabolic conversion rate at different protein concentrations [2] | Effect of ticlopidine (CYP2C37 inhibitor) on metabolism of the component (residual content) (CYP2C37) | Effect of α-naphthoflavone (CYP1A2 inhibitor) on metabolism of the component (residual content) (CYP1A2) | Effect of clomethiazole (CYP2E1 inhibitor) on metabolism of the component (residual content) (CYP2E1) | Effect of fluconazole (CYP2C11 inhibitor) on metabolism of the component (residual content) (CYP2C11) | Effect of the specific CYP enzyme inhibitors on metabolism of the component (liver CYP450 enzymes)
CC1(C)[C@@H](O[C@H]2O[C@H](C(=O)O)[C@@H](O)[C@H](O)[C@H]2O[C@@H]2O[C@H](C(=O)O)[C@@H](O)[C@H](O)[C@H]2O)CC[C@]2(C)[C@H]3C(=O)C=C4[C@@H]5C[C@@](C)(C(=O)O)CC[C@]5(C)CC[C@@]4(C)[C@]3(C)CC[C@@H]12 [Glycyrrhizic acid] | prevented the metabolism | greater absorption and delayed elimination | increased with time, however, saturated after 60 min | initially increased with the increase in protein concentration | prevented the metabolism |  |  |  | 
COc1ccc(-c2coc3cc(O)ccc3c2=O)cc1O |  | greater absorption and delayed elimination | increased with time, however, saturated after 60 min | initially increased with the increase in protein concentration |  | prevented the metabolism | prevented the metabolism |  | 
COc1ccc(-c2coc3cc(O)ccc3c2=O)cc1 [Formononetin] | prevented the metabolism | greater absorption and delayed elimination | increased with time, however, saturated after 60 min | initially increased with the increase in protein concentration |  |  |  | prevented the metabolism | 
CC(C)(O)[C@@H]1CC[C@](C)([C@H]2[C@@H](O)C[C@@]3(C)[C@@H]4C[C@H](O[C@@H]5O[C@H](CO)[C@@H](O)[C@H](O)[C@H]5O)[C@H]5C(C)(C)[C@@H](O[C@@H]6OC[C@@H](O)[C@H](O)[C@H]6O)CC[C@@]56C[C@@]46CC[C@]23C)O1 [Astragaloside IV] |  | greater absorption and delayed elimination | increased with time, however, saturated after 60 min | initially increased with the increase in protein concentration | prevented the metabolism |  |  | prevented the metabolism | 
COc1ccc(-c2coc3cc(O[C@@H]4O[C@H](CO)[C@@H](O)[C@H](O)[C@H]4O)ccc3c2=O)cc1 [Ononin] |  | greater absorption and delayed elimination | increased with time, however, saturated after 60 min | initially increased with the increase in protein concentration |  |  |  |  | not affected
COc1ccc(-c2coc3cc(O[C@@H]4O[C@H](CO)[C@@H](O)[C@H](O)[C@H]4O)ccc3c2=O)cc1O [Calycosin-7-O-β-D-glucoside] |  | greater absorption and delayed elimination | increased with time, however, saturated after 60 min | initially increased with the increase in protein concentration |  |  |  |  | not affected
